Data as given in patent US20250084074A1, “SUBSTITUTED HETEROCYCLES AS HSET INHIBITORS” (MERCK PATENT GMBH, priority 2022, published 2025).
Counter-ions that a name gives are not always drawn.

biological target: HSET full length protein (Homo sapiens (Human), UniProt Q9BW19); experiment: HSET ADP-Glo Assay S - 3 μM ATP; format: biochemical; details: 5 nM HSET, 70 μg/mL microtubule, 80 min at rt, read-out: COMBINED HSET ADP GLO IC50
In short: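 ADP-Glo luminescence read-out: ATPase reaction at 3 μM ATP, 80 min at room temperature, after a 10 min compound preincubation. Enzyme was full-length human HSET at 5 nM, stimulated by 70 μg/mL paclitaxel-stabilised bovine microtubules in HEPES pH 6.8 buffer with MgCl2, EGTA, Triton X-100 and DTT.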

Chain of HSET full length protein (Q9BW19 whole entry): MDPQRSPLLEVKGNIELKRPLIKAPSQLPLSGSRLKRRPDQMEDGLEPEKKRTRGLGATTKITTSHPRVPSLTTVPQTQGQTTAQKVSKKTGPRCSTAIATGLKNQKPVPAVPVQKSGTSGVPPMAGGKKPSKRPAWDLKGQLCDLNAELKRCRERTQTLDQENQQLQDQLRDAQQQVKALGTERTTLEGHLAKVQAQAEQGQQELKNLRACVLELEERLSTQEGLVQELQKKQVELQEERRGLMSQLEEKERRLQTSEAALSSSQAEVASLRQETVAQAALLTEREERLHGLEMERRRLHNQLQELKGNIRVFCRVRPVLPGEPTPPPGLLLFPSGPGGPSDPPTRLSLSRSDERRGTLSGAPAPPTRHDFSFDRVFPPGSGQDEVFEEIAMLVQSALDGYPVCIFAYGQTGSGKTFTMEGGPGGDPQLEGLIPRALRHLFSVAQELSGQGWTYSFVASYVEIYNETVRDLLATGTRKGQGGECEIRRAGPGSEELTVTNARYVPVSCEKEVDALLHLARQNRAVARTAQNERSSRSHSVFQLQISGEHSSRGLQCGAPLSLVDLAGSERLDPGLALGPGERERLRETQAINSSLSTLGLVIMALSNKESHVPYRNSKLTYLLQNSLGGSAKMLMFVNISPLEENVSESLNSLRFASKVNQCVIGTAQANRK

SMILES	IC50
CCCOC(=O)c1sc(NC(=O)[C@@H]2C[C@H](NC(=O)c3cccc(-c4noc(C)n4)c3)CN2C)nc1C [Example 234, Propyl 4-methyl-2-((2S,4S)-1-methyl-4-(3-(5-methyl-1,2,4-oxadiazol-3-yl)benzamido)pyrrolidine-2-carboxamido)thiazole-5-carboxylate]	2100 nM
CCCOC(=O)n1cc(NC(=O)CCNc2nccc3ccc(-c4noc(C)n4)cc23)cn1 [Example 273, Propyl 4-(3-{[7-(5-methyl-1,2,4-oxadiazol-3-yl)isoquinolin-1-yl]amino}propanamido)-1 H-pyrazole-1-carboxylate]	80 nM
Cc1nc(-c2ccc3ncnc(NCCC(=O)Nc4nc(C)c(C(C)(C)C)s4)c3c2)no1 [Example 47, N-(5-tert-butyl-4-methyl-thiazol-2-yl)-3-[[6-(5-methyl-1,2,4-oxadiazol-3-yl)quinazolin-4-yl]amino]propanamide formate]	147 nM
CCOC(=O)c1sc(NC(=O)CCNC(=O)c2cccc(-c3noc(C)n3)c2)nc1CC [Example 92, Ethyl 4-ethyl-2-[3-[[3-(5-methyl-1,2,4-oxadiazol-3-yl)benzoyl]amino]propanoylamino]thiazole-5-carboxylate]	45 nM
CCCOC(=O)c1sc(NC(=O)[C@H](O)CNc2nccc3ccc(-c4noc(C)n4)cc23)nc1C [Example 176, Propyl (R)-2-(2-hydroxy-3-((7-(5-methyl-1,2,4-oxadiazol-3-yl)isoquinolin-1-yl)amino)propanamido)-4-methylthiazole-5-carboxylate]	1 nM
CCOC(=O)c1sc(NC(=O)CCNC(=O)c2cccc(-c3noc(C)n3)c2)nc1C [Example 4, Ethyl 4-methyl-2-(3-(3-(5-methyl-1,2,4-oxadiazol-3-yl)benzamido)propanamido)thiazole-5-carboxylate]	63 nM
Cc1nc(NC(=O)C[C@H](CC#N)NC(=O)c2cccc(-c3cnn(C)c3)n2)sc1C(=O)OC(C)(C)C [Example 211, tert-Butyl 2-[(3S)-4-cyano-3-{[6-(1-methyl-1 H-pyrazol-4-yl)pyridin-2-yl]formamido}butanamido]-4-methyl-1,3-thiazole-5-carboxylate]	1300 nM
Cc1nc(-c2cccc(C(=O)N[C@H](CC#N)CC(=O)N(C)c3nc(C)c(C(=O)OC(C)C)s3)c2)no1 [Example 200, Propan-2-yl 2-[(3R)-4-cyano-N-methyl-3-{[3-(5-methyl-1,2,4-oxadiazol-3-yl)phenyl]-formamido}butanamido]-4-methyl-1,3-thiazole-5-carboxylate]	295 nM
Cc1nc(-c2ccc3ccnc(N[C@H]4CCN(C(=O)c5nc(C)c(C(C)(C)C)s5)C4)c3c2)no1 [Example 246, (S)-(5-(tert-butyl)-4-methylthiazol-2-yl)(3-((7-(5-methyl-1,2,4-oxadiazol-3-yl)isoquinolin-1-yl)amino)pyrrolidin-1-yl)methanone]	1740 nM
CCCOC(=O)c1sc(NC(=O)[C@@H](N)CNc2nccc3ccc(-c4noc(C)n4)cc23)nc1C [Example 174, Propyl (S)-2-(2-amino-3-((7-(5-methyl-1,2,4-oxadiazol-3-yl)isoquinolin-1-yl)amino)propanamido)-4-methylthiazole-5-carboxylate]	8 nM
Cc1nc(-c2ccc3ccnc(N[C@H]4C[C@@H](C(=O)Nc5nc(C)c(C(C)(C)C)s5)N(C)C4)c3c2)no1 [Example 236, (2S,4S)-N-(5-(tert-butyl)-4-methylthiazol-2-yl)-1-methyl-4-((7-(5-methyl-1,2,4-oxadiazol-3-yl)isoquinolin-1-yl)amino)pyrrolidine-2-carboxamide]	2840 nM
CCOC(=O)c1sc(NC(=O)CCNC(=O)c2cccc(-c3cnco3)c2)nc1C [Example 6, Ethyl 4-methyl-2-(3-(3-(oxazol-5-yl)benzamido)propanamido)thiazole-5-carboxylate]	614 nM
CCOC(=O)c1sc(NC(=O)C[C@H](CN)NC(=O)c2cccc(-c3noc(C)n3)c2)nc1C [Example 148, Ethyl-2-[[(3R)-4-amino-3-[[3-(5-methyl-1,2,4-oxadiazol-3-yl)benzoyl]amino]butanoyl]amino]-4-methyl-thiazole-5-carboxylate]	133 nM
CCOC(=O)c1sc(C(=O)NCCNC(=O)c2cccc(-c3noc(CC)n3)c2)nc1C [Example 140, Ethyl-2-((2-(3-(5-ethyl-1,2,4-oxadiazol-3-yl)benzamido)ethyl)carbamoyl)-4-methylthiazole-5-carboxylate]	5040 nM
CCOC(=O)c1sc(NC(=O)CCNC(=O)c2ccc(C)c(C(=O)OC)c2)nc1C [Example 14, Ethyl 2-[3-[(3-methoxycarbonyl-4-methyl-benzoyl)amino]propanoylamino]-4-methyl-thiazole-5-carboxylate]	325 nM
CCOC(=O)c1sc(NC(=O)CCNC(=O)c2cccc(-c3noc(C)n3)c2)nc1C(F)(F)F [Example 91, Ethyl 2-[3-[[3-(5-methyl-1,2,4-oxadiazol-3-yl)benzoyl]amino]propanoylamino]-4-(trifluoromethyl)thiazole-5-carboxylate]	415 nM

SMILES	IC50
Cc1nc(-c2ccc3ccnc(N[C@H]4C[C@@](C)(C(=O)Nc5nc(C)c(C(=O)OC(C)(C)C)s5)C4)c3c2)no1 [Example 224, tert-Butyl 4-methyl-2-((1s,3s)-1-methyl-3-((7-(5-methyl-1,2,4-oxadiazol-3-yl)isoquinolin-1-yl)amino)cyclobutane-1-carboxamido)thiazole-5-carboxylate]	270 nM
Cc1nc(-c2ccc3ccnc(NCCC(=O)Nc4cc(C(C)(C)C)n(C)n4)c3c2)no1 [Example 82, N-(5-(tert-butyl)-1-methyl-1 H-pyrazol-3-yl)-3-((7-(5-methyl-1,2,4-oxadiazol-3-yl)isoquinolin-1-yl)amino)propanamide]	1480 nM
CCCOC(=O)c1sc(NC(=O)[C@H](CNC(=O)c2cccc(-c3noc(C)n3)c2)N(C)C)nc1C [Example 175, Propyl (S)-2-(2-(dimethylamino)-3-(3-(5-methyl-1,2,4-oxadiazol-3-yl)benzamido)propanamido)-4-methylthiazole-5-carboxylate formate]	335 nM
CCOC(=O)c1sc(NC(=O)CCNc2nccc3ccc(-c4noc(C)n4)cc23)nc1C [Example 45, Ethyl 4-methyl-2-[3-[[7-(5-methyl-1,2,4-oxadiazol-3-yl)-1-isoquinolyl]amino]propanoylamino]thiazole-5-carboxylate]	5 nM
COCCOCCCCOC(=O)c1sc(NC(=O)CCNC(=O)c2cccc(-c3noc(C)n3)c2)nc1C [Example 127, 4-(2-methoxyethoxy)butyl 4-methyl-2-(3-(3-(5-methyl-1,2,4-oxadiazol-3-yl)benzamido)propanamido)thiazole-5-carboxylate]	55 nM
CCOC(=O)c1sc(NC(=O)CC(NC(=O)c2cccc(-c3noc(C)n3)c2)C2CCN(C)CC2)nc1C (stereo not shown) [Example 147, 4-(3-((5-(ethoxycarbonyl)-4-methylthiazol-2-yl)amino)-1-(3-(5-methyl-1,2,4-oxadiazol-3-yl)benzamido)-3-oxopropyl)-1-methylpiperidin-1-ium formate]	291 nM
CCCOC(=O)c1cc(C(=O)N2CC[C@H](Nc3nccc4ccc(-c5noc(C)n5)cc34)C2)nn1C [Example 245, Propyl (S)-1-methyl-3-(3-((7-(5-methyl-1,2,4-oxadiazol-3-yl)isoquinolin-1-yl)amino)pyrrolidine-1-carbonyl)-1 H-pyrazole-5-carboxylate]	7470 nM
CCOC(=O)c1sc(NC(=O)CCNC(=O)c2cccc(-c3nnc(C)o3)c2)nc1C [Example 37, Ethyl 4-methyl-2-(3-(3-(5-methyl-1,3,4-oxadiazol-2-yl)benzamido)propanamido)thiazole-5-carboxylate]	260 nM
CCCOC(=O)c1sc(NC(=O)CCNC(=O)c2cc(C(=O)OC)cc(-c3noc(C)n3)c2)nc1C [Example 44, Propyl 2-(3-(3-(methoxycarbonyl)-5-(5-methyl-1,2,4-oxadiazol-3-yl)benzamido)propanamido)-4-methylthiazole-5-carboxylate]	281 nM
CCN(c1nc(C)c(C(=O)OC(C)(C)C)s1)C(=O)[C@H]1C[C@@H](Nc2nccc3ccc(-c4noc(C)n4)cc23)C1 [Example 218, tert-Butyl 2-((1s,3s)-N-ethyl-3-((7-(5-methyl-1,2,4-oxadiazol-3-yl)isoquinolin-1-yl)amino)cyclobutanecarboxamido)-4-methylthiazole-5-carboxylate formate]	41 nM
Cc1nc(-c2ccc3ccnc(NCCC(=O)Nc4cc(C(=O)OC5CCCC5)n(C)n4)c3c2)no1 [Example 138, Cyclopentyl-1-methyl-3-(3-((7-(5-methyl-1,2,4-oxadiazol-3-yl)isoquinolin-1-yl)amino)propanamido)-1 H-pyrazole-5-carboxylate]	11 nM
CCCOC(=O)n1cc(NC(=O)CCNC(=O)c2cccc(-c3noc(C)n3)c2)cn1 [Example 275, Propyl 4-(3-{[3-(5-methyl-1,2,4-oxadiazol-3-yl)phenyl]formamido}-propanamido)-1 H-pyrazole-1-carboxylate]	11500 nM
CCCOC(=O)c1sc(NC(=O)[C@@H](O)CNc2nccc3ccc(-c4noc(C)n4)cc23)nc1C [Example 178, Propyl (S)-2-(2-hydroxy-3-((7-(5-methyl-1,2,4-oxadiazol-3-yl)isoquinolin-1-yl)amino)propanamido)-4-methylthiazole-5-carboxylate]	2 nM
CNCCC[C@@H](CC(=O)Nc1nc(C)c(C(=O)OC(C)(C)C)s1)Nc1nccc2ccc(-c3noc(C)n3)cc12 [Example 168, tert-Butyl (S)-4-methyl-2-(3-((7-(5-methyl-1,2,4-oxadiazol-3-yl)isoquinolin-1-yl)amino)-6-(methylamino)hexanamido)thiazole-5-carboxylate]	3 nM
CCCOC(=O)c1sc(NC(=O)CCNC(=O)c2cc(C#N)cc(C(F)(F)F)c2)nc1C [Example 28, Propyl 2-(3-(3-cyano-5-(trifluoromethyl)benzamido)propanamido)-4-methylthiazole-5-carboxylate]	2240 nM
